# Measurements taken from PubChem BioAssay (NCI).
#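 How tested: cells in 96-well plates exposed to compound for 48 hours at five concentrations. TGI denotes the concentration required for complete inhibition of growth.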
# How the values were obtained:
# Assay in all cases: DTP human tumour cell line panel, 48 h
# MOLT-4 leukemia = test system: MOLT-4 leukemia
# SF-539 CNS = test system: SF-539 CNS
# OVCAR-3 ovarian = test system: OVCAR-3 ovarian
# NCI/ADR-RES ovarian = test system: NCI/ADR-RES ovarian
# SK-MEL-2 melanoma = test system: SK-MEL-2 melanoma
# UACC-62 melanoma = test system: UACC-62 melanoma
# OVCAR-5 ovarian = test system: OVCAR-5 ovarian
# TK-10 renal = test system: TK-10 renal
# NCI-H460 lung = test system: NCI-H460 lung
# SF-268 CNS = test system: SF-268 CNS
# IGROV1 ovarian = test system: IGROV1 ovarian
# HL-60(TB) leukemia = test system: HL-60(TB) leukemia
# M14 melanoma = test system: M14 melanoma
# U251 CNS = test system: U251 CNS
# NCI-H23 lung = test system: NCI-H23 lung
# NCI-H226 lung = test system: NCI-H226 lung
Structure (SMILES),TGI (MOLT-4 leukemia) [µM],TGI (SF-539 CNS) [µM],TGI (OVCAR-3 ovarian) [µM],TGI (NCI/ADR-RES ovarian) [µM],TGI (SK-MEL-2 melanoma) [µM],TGI (UACC-62 melanoma) [µM],TGI (OVCAR-5 ovarian) [µM],TGI (TK-10 renal) [µM],TGI (NCI-H460 lung) [µM],TGI (SF-268 CNS) [µM],TGI (IGROV1 ovarian) [µM],TGI (HL-60(TB) leukemia) [µM],TGI (M14 melanoma) [µM],TGI (U251 CNS) [µM],TGI (NCI-H23 lung) [µM],TGI (NCI-H226 lung) [µM]
Cc1cn([C@@H]2O[C@H](CO[Si](C)(C)C(C)(C)C)[C@]3(O[C@H]3C(=O)NO)[C@H]2O[Si](C)(C)C(C)(C)C)c(=O)[nH]c1=O,4.62,2.83,3.49,18.5,3.9,3.38,3.33,5.35,3.15,2.97,3.19,3.57,3.56,3.07,3.66,3.69
Clc1ccc(OCC2NC3CCC2CC3)cn1 (centres undefined),47.5,38.5,> 100,> 100,33.4,39.3,> 100,> 100,55.1,> 100,> 100,51.9,36.5,30.7,> 100,> 100
Clc1ccc(/C=C/c2nc(-c3ccccc3)cn3c2nc2ccccc23)cc1Cl,> 100,> 100,> 100,> 100,> 100,> 100,> 100,> 100,> 100,> 100,> 100,49.7,> 100,> 100,> 100,> 100
CN1CCN(c2cc3[nH]c4cc(O)cc(O)c4c(=O)c3cc2N)CC1,4.58,17.4,54.9,> 100,70.7,2.91,> 100,94.2,> 100,52.5,72.5,> 100,> 100,68.5,> 100,5.25
Cc1ccc2c(c1C)C(=O)C1(C2)Cc2ccc3c(c2C1=O)CCC3 (centres undefined),> 100,> 100,> 100,> 100,> 100,> 100,> 100,> 100,> 100,> 100,> 100,> 100,> 100,> 100,> 100,> 100
CC1=C(O)C(=O)C=C2C1=CC=C1[C@@]2(C)CC[C@@]2(C)C3C[C@@H](C)C(=O)[C@@H](O)[C@]3(C)CC[C@]12C (some centres undefined),3.21,4.33,3.6,9.55,9.85,3.28,9.29,3.82,37.6,11,3.28,2.76,3.26,2.88,3.6,11.1
O=C1CSC(c2c[nH]c3ccccc23)N1c1cccc(Cl)c1 (centres undefined),> 100,> 100,> 100,> 100,65.2,> 100,> 100,> 100,> 100,> 100,> 100,> 100,> 100,> 100,> 100,> 100
O=C1C2C3C4C1C1C2[C@H](OCc2ccccc2)C3C1[C@H]4OCc1ccccc1 (some centres undefined),> 100,> 100,> 100,54.8,> 100,> 100,56,> 100,> 100,> 100,> 100,50.9,> 100,> 100,> 100,> 100
O=C1c2ccccc2C(=O)N1/N=C1/SC(=Nc2ccccc2)C(=Nc2ccccc2)N1c1ccccc1,> 100,> 100,> 100,> 100,> 100,> 100,> 100,> 100,> 100,> 100,> 100,> 100,> 100,> 100,> 88.6,> 100
